Test system: S. Aureus in osteoblast cells
Assay: Confocal microscopy live/dead staining (SYTO 9 / propidium iodide) of infected osteoblasts
Type: cell-based, Staphylococcus aureus
Conditions: gentamycine alone, FIG. 6C
Protocol: Confocal microscopy provided the evidence for intracellular bacteria killing. Osteoblast cells were cultured on 18 mm cover slips in a six well plate. Cells were treated with nanoparticles 1 ug/mL. The stain used was from invitrogen (L-7002) with two types of Dyes, SYTO 9 dye, 3,34 mM (Component A), 300 μL solution in DMSO and Propidium iodide PI, 20 mM (Component B), 300 μL solution in DMSO. The plates were incubated in the dark for 15 minutes after which the coverslips with growing co-cultured cells were gently removed and were placed on a glass slide containing 50 μL of 10%A glycerol with cells lying between the cover slip and the glass slide. The slide was observed under a confocal microscope using bandpass filters for red and green color. Images were obtained at different working distances and were superimposed by an Olympus CCD camera software to get images with dual color. […] Gentamycine is an antibiotic that is not capable of penetrating the bone cells membrane.

gentamycine was tested, and the “dead bacteria (red) in infected osteoblast cells, confocal image” value was “no significant numbers of dead bacteria”.

Reference: patent US20130177610A1, “NANO-METALLIC ALLOY DELIVERY SYSTEM FOR TREATMENT OF INFECTED CELLS AND LEGIONS” (UNIVERSITY OF NORTH CAROLINA AT GREENSBORO, priority 2008, published 2013)
